Data as given in patent publication US10758549B2, “Compositions of obeticholic acid and methods of use” (Intercept Pharmaceuticals, Inc., priority 2015, dated 2020).
“And” between values parts separate entries of the source, which are not always exact repeats. Equal values may be shown once. Values belong to the compound of their own block, whether it stands above or below them.

How the values were obtained:
[1] = target: T1, farnesoid X receptor (FXR) (Homo sapiens, UniProt Q96RI1); details: in vitro / on FXR; cited from earlier work
T1 sequence (Q96RI1 1-486): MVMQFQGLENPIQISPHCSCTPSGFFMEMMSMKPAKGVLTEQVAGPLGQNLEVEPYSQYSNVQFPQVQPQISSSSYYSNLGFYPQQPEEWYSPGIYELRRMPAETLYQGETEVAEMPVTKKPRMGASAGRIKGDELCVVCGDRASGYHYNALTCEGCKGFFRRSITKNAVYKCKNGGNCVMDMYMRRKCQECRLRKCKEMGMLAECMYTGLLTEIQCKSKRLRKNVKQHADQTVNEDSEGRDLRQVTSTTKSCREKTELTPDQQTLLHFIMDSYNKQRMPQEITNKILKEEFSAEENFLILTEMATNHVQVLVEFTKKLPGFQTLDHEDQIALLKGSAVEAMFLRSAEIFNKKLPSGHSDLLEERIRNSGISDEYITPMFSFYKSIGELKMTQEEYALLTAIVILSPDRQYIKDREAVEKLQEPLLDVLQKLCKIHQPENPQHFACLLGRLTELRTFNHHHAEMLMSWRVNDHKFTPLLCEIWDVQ

[2] = Particle size distribution, dry dispersion laser diffraction (Sympatec); type: physicochemical; details: for D10 / D25 / D50 / D75 / D90 / D95: in µm (unit assumed); for PSD X10 / PSD X50 / PSD X90: spiral jet mill, JetPharma
Description: Particle size of agglomeration was identified as playing a primary role in the release rate and dissolution and variability in the blend uniformity and content uniformity of the tablet formulations. In order to obtain an appropriate particle size distribution (PSD), milling of obeticholic acid was investigated. The particle size of the formulations was reduced using comilling and jet milling to improve its dissolution release profile. Particle size analysis was performed using a dry dispersion method and analyzed by laser diffraction using Sympatec equipment.
Particle size distribution was assessed using a dry dispersion method analyzed by laser diffraction using a Sympatec Laser Helos/KF-Magic F71000 with Rodos Dispersing Unit. The OCA sample (0.5 g sample) was tested as a dry powder. The parameters for the validated particle size analysis method are described below:
Apparatus: Sympatec Laser Helos/KF-Magic F71000 with Rodos Dispersing Unit, Vibri sampling unit with Sniffer rotation, Nilfisk exhaustion or equivalent.
Dispersing principle: Dry.

Surface area by BET = type: physicochemical
Description: The impact of jet-milling on API particle size and surface area is detailed in Table 4-1 and Table 4-2, respectively. Surface area was tested per a BET (Brunauer, Emmett, and Teller theory). The BET method for analyzing surface area is based on adsorption of gas on a surface. The amount of gas adsorbed at a given pressure allows a determination of the surface area.

[3] = Before jet-milling (unmicronized)

SMILES: CCC1C(O)C2C3CCC(C(C)CCC(=O)O)C3(C)CCC2C2(C)CCC(OC3OC(C(=O)O)C(O)C(O)C3O)CC12 (stereo not drawn) [3-glucuronide]
pharmacological activity relative to OCA (parent drug) [1]: minimal pharmacologic activity

D10 [2]: 5.7 | D25 [2]: 122.9 | D50 [2]: 217.5 | D75 [2]: 283.0 | D90 [2]: 335.1 | D95 [2]: 360.3
SMILES: CC[C@H]1[C@@H](O)[C@@H]2[C@H](CC[C@]3(C)[C@@H]([C@H](C)CCC(=O)O)CC[C@@H]23)[C@@]2(C)CC[C@@H](O)C[C@@H]12 [Comilled with 0.46 mm screen]

D10 [2]: 5.5 and 4.1 | D25 [2]: 106.6 and 102.2 | D50 [2]: 223.2 and 263.1 | D75 [2]: 320.8 and 351.0 | D90 [2]: 393.8 and 410.9 | D95 [2]: 429.8 and 447.9
SMILES: CC[C@H]1[C@@H](O)[C@@H]2[C@H](CC[C@]3(C)[C@@H]([C@H](C)CCC(=O)O)CC[C@@H]23)[C@@]2(C)CC[C@@H](O)C[C@@H]12 [Comilled with 0.61 mm screen]

D10 [2]: 7.9 | D25 [2]: 73.9 | D50 [2]: 239.3 | D75 [2]: 340.8 | D90 [2]: 412.0 | D95 [2]: 452.7
SMILES: CC[C@H]1[C@@H](O)[C@@H]2[C@H](CC[C@]3(C)[C@@H]([C@H](C)CCC(=O)O)CC[C@@H]23)[C@@]2(C)CC[C@@H](O)C[C@@H]12 [Comilled with 1.14 mm screen]

PSD X10 [2]: X10: 1 μm | PSD X50 [2]: X50: 5 μm | PSD X90 [2]: X90: 20 μm
SMILES: CC[C@H]1[C@@H](O)[C@@H]2[C@H](CC[C@]3(C)[C@@H]([C@H](C)CCC(=O)O)CC[C@@H]23)[C@@]2(C)CC[C@@H](O)C[C@@H]12 [JP1307001]

PSD X10 [2]: X10: 1 μm | PSD X50 [2]: X50: 5 μm | PSD X90 [2]: X90: 19 μm
SMILES: CC[C@H]1[C@@H](O)[C@@H]2[C@H](CC[C@]3(C)[C@@H]([C@H](C)CCC(=O)O)CC[C@@H]23)[C@@]2(C)CC[C@@H](O)C[C@@H]12 [JP1408001]

PSD X10 [2]: X10: 1 μm | PSD X50 [2]: X50: 4 μm | PSD X90 [2]: X90: 14 μm
SMILES: CC[C@H]1[C@@H](O)[C@@H]2[C@H](CC[C@]3(C)[C@@H]([C@H](C)CCC(=O)O)CC[C@@H]23)[C@@]2(C)CC[C@@H](O)C[C@@H]12 [JP1408002]

PSD X10 [2]: X10: 1 μm | PSD X50 [2]: X50: 4 μm | PSD X90 [2]: X90: 15 μm
SMILES: CC[C@H]1[C@@H](O)[C@@H]2[C@H](CC[C@]3(C)[C@@H]([C@H](C)CCC(=O)O)CC[C@@H]23)[C@@]2(C)CC[C@@H](O)C[C@@H]12 [JP1408003]

D16 [2]: 2.3 µm | D84 [2]: 57.2 µm | D99 [2]: 97.9 µm | D10 [2]: 1.7 | D50 [2]: 10.9 | D90 [2]: 69.3
SMILES: CC[C@H]1[C@@H](O)[C@@H]2[C@H](CC[C@]3(C)[C@@H]([C@H](C)CCC(=O)O)CC[C@@H]23)[C@@]2(C)CC[C@@H](O)C[C@@H]12 [Jet mill, classifier speed 2000 rpm]

D16 [2]: 1.6 µm | D84 [2]: 17 µm | D99 [2]: 36 µm | D10 [2]: 1.3 | D50 [2]: 3.8 | D90 [2]: 21.7
SMILES: CC[C@H]1[C@@H](O)[C@@H]2[C@H](CC[C@]3(C)[C@@H]([C@H](C)CCC(=O)O)CC[C@@H]23)[C@@]2(C)CC[C@@H](O)C[C@@H]12 [Jet mill, classifier speed 4000 rpm]

D16 [2]: 1.7 µm | D84 [2]: 15.2 µm | D99 [2]: 55.8 µm | D10 [2]: 1.3 | D50 [2]: 4.2 | D90 [2]: 18.9
SMILES: CC[C@H]1[C@@H](O)[C@@H]2[C@H](CC[C@]3(C)[C@@H]([C@H](C)CCC(=O)O)CC[C@@H]23)[C@@]2(C)CC[C@@H](O)C[C@@H]12 [Jet mill, classifier speed 5000 rpm]

D16 [2]: 1.4 µm | D84 [2]: 4.7 µm | D99 [2]: 9 µm | D10 [2]: 1.1 | D50 [2]: 2.7 | D90 [2]: 5.6
SMILES: CC[C@H]1[C@@H](O)[C@@H]2[C@H](CC[C@]3(C)[C@@H]([C@H](C)CCC(=O)O)CC[C@@H]23)[C@@]2(C)CC[C@@H](O)C[C@@H]12 [Jet mill, classifier speed 10000 rpm]

Surface Area (m^2/kg) (Surface area by BET; After jet-milling (micronized)): 3178 m^2/kg | Surface Area (m^2/kg) (Surface area by BET; [3]): 1557 m^2/kg | Dv (10) ([2]; After jet-milling (micronized)): 0.7 µm | Dv (50) ([2]; After jet-milling (micronized)): 6.1 µm | Dv (90) ([2]; After jet-milling (micronized)): 18.8 µm | Dv (99) ([2]; After jet-milling (micronized)): 30.8 µm | Dv (10) [2, 3]: 2.6 µm | Dv (50) [2, 3]: 26 µm | Dv (90) [2, 3]: 162 µm | Dv (99) [2, 3]: 419 µm
SMILES: CC[C@H]1[C@@H](O)[C@@H]2[C@H](CC[C@]3(C)[C@@H]([C@H](C)CCC(=O)O)CC[C@@H]23)[C@@]2(C)CC[C@@H](O)C[C@@H]12 [OCA Example # 1]

Surface Area (m^2/kg) (Surface area by BET; After jet-milling (micronized)): 3848 m^2/kg | Surface Area (m^2/kg) (Surface area by BET; [3]): 1854 m^2/kg | Dv (10) ([2]; After jet-milling (micronized)): 0.6 µm | Dv (50) ([2]; After jet-milling (micronized)): 4.4 µm | Dv (90) ([2]; After jet-milling (micronized)): 17.8 µm | Dv (99) ([2]; After jet-milling (micronized)): 34.6 µm | Dv (10) [2, 3]: 1.8 µm | Dv (50) [2, 3]: 19 µm | Dv (90) [2, 3]: 231 µm | Dv (99) [2, 3]: 509 µm
SMILES: CC[C@H]1[C@@H](O)[C@@H]2[C@H](CC[C@]3(C)[C@@H]([C@H](C)CCC(=O)O)CC[C@@H]23)[C@@]2(C)CC[C@@H](O)C[C@@H]12 [OCA Example # 2]

Surface Area (m^2/kg) (Surface area by BET; After jet-milling (micronized)): 3412 m^2/kg | Surface Area (m^2/kg) (Surface area by BET; [3]): 809 m^2/kg | Dv (10) ([2]; After jet-milling (micronized)): 0.7 µm | Dv (50) ([2]; After jet-milling (micronized)): 4.9 µm | Dv (90) ([2]; After jet-milling (micronized)): 14.1 µm | Dv (99) ([2]; After jet-milling (micronized)): 25.9 µm | Dv (10) [2, 3]: 5.3 µm | Dv (50) [2, 3]: 39 µm | Dv (90) [2, 3]: 221 µm | Dv (99) [2, 3]: 513 µm
SMILES: CC[C@H]1[C@@H](O)[C@@H]2[C@H](CC[C@]3(C)[C@@H]([C@H](C)CCC(=O)O)CC[C@@H]23)[C@@]2(C)CC[C@@H](O)C[C@@H]12 [OCA Example # 3]

D10 [2]: 4.8 and 3.3 | D50 [2]: 218.6 and 167.7 | D75 [2]: 335.7 and 273.7 | D90 [2]: 427.6 and 355.6 | D95 [2]: 472.6 and 398.2 | D10 ([2]; listed as Unmilled API): 4.8 | D50 ([2]; listed as Unmilled API): 218.6 | D90 ([2]; listed as Unmilled API): 427.6
SMILES: CC[C@H]1[C@@H](O)[C@@H]2[C@H](CC[C@]3(C)[C@@H]([C@H](C)CCC(=O)O)CC[C@@H]23)[C@@]2(C)CC[C@@H](O)C[C@@H]12 [Unmilled API (no comil)]
